Patent US8987288B2, “Heterocyclic aminoberbamine derivatives, the preparation process and use thereof” (Hangzhou Bensheng Pharmaceutical Co., Ltd., priority 2010, dated 2015)
Values after ≈ are worked out from the molar mass of the structure shown. Read-outs that look alike come from different tables or passages of the source.

What was measured:
[1] = test system: RPMI 8226 (multiple myeloma); assay: Multiple myeloma cell growth inhibition, MTT, 72 h; type: cell-based, human
Description: Multiple myeloma and lymphoma cell lines: RPM18226 (multiple myeloma). Obtaining 6000 well-growing abovesaid tumor cells and inoculating them into wells of a 96-well cell culture plate. The culture medium is the 1640 cell culture medium containing 10% fetal bovine serum. After adding the berbamine derivatives of different concentrations and mixing uniformly, the plate is placed in a carbon dioxide cell incubator (5% CO2) at 37° C. and incubated for 72 hours. Then the viable cell concentration is determined by the MTT method.

[2] = test system: RKO (human colon adenocarcinoma cell); assay: Solid tumor cell growth inhibition, MTT, 72 h; type: cell-based; conditions: read-out: half inhibiting concentration (IC50 value) RKO
From the text: (§1) Human solid tumor cell lines: HepG2 (human hepatocellular carcinoma, HCC), A549 (human lung cancer), MCF-7 (breast cancer), PANC-1 (pancreatic, cancer), PC-3 (prostate cancer). MG63 (osteosarcomas). AGS (gastric cancer), Huh7 (human hepatoma cell), Becap37 (human breast cancer cell), Hela (human cervical cancer cell), RKO (human colon adenocarcinoma cell), SW620 (human colon adenocarcinoma cell), SW480 (human colon cancer cell), MGC 803 (human gastric cancer cell). Obtaining 4000 well-growing human solid tumor cells and inoculating them into wells of a 96-well cell culture plate. The culture medium is DMEM High Glucose cell culture medium containing 10% fetal bovine serum. Alter adding the berbamine derivatives of different concentration and mixing uniformly, the plate is placed in a carbon dioxide cell incubator (5% CO2) at 37° C. and incubated for 72 hours. Then the viable cell concentration is determined by the MTT method, and the cell viability (%) alter drug treatment is calculated. In this experiment, the cell viability of control group (not treated with any compound) is set as 100%.

[3] = test system: A549 (human lung cancer); assay: Solid tumor cell growth inhibition, MTT, 72 h; type: cell-based
From the text: as §1

[4] = test system: Huh7 (human hepatoma cell); assay: Solid tumor cell growth inhibition, MTT, 72 h; type: cell-based; conditions: Huh-7, read-out: half inhibiting concentration (IC50 value) Huh7
From the text: as §1

[5] = test system: Hela (human cervical cancer cell); assay: Solid tumor cell growth inhibition, MTT, 72 h; type: cell-based; conditions: read-out: half inhibiting concentration (IC50 value) Hela
From the text: as §1

[6] = test system: PANC-1 (pancreatic cancer); assay: Solid tumor cell growth inhibition, MTT, 72 h; type: cell-based; conditions: Homo sapiens, read-out: half inhibiting concentration (IC50 value) PANC-1
From the text: as §1

[7] = test system: MGC 803 (human gastric cancer cell); assay: Solid tumor cell growth inhibition, MTT, 72 h; type: cell-based
From the text: as §1

[8] = test system: HepG2 (human hepatocellular carcinoma, HCC); assay: Solid tumor cell growth inhibition, MTT, 72 h; type: cell-based
From the text: as §1

[9] = test system: SW480 (human colon cancer cell); assay: Solid tumor cell growth inhibition, MTT, 72 h; type: cell-based
From the text: as §1

[10] = test system: Becap37 (human breast cancer cell); assay: Solid tumor cell growth inhibition, MTT, 72 h; type: cell-based; conditions: read-out: half inhibiting concentration (IC50 value) Becap37
From the text: as §1

[11] = test system: AGS (gastric cancer); assay: Solid tumor cell growth inhibition, MTT, 72 h; type: cell-based; conditions: Homo sapiens, read-out: half inhibiting concentration (IC50 value) AGS
From the text: as §1

[12] = test system: PC-3 (prostate cancer); assay: Solid tumor cell growth inhibition, MTT, 72 h; type: cell-based; conditions: Homo sapiens, read-out: half inhibiting concentration (IC50 value) PC-3
From the text: as §1

[13] = test system: SW620 (human colon adenocarcinoma cell); assay: Solid tumor cell growth inhibition, MTT, 72 h; type: cell-based; conditions: SW-620, read-out: half inhibiting concentration (IC50 value) SW620
From the text: as §1

[14] = test system: K562 leukemia cell line (chronic myeloid leukemia, CML); assay: Leukemia cell growth inhibition, MTT, 72 h; type: cell-based, human
From the text: (§2) Leukemia cell lines; human K562 leukemia cell line (chronic myeloid leukemia, CML), K562/adr (drug-resistant chronic myeloid leukemia (CML), NB4 (acute promyelocytic leukemia, AML), Kasumi-1 (acute myeloid leukemia M2 type, AML-M2), Jurkat (acute lymphoblastic leukemia, ALL), H9 (acute lymphoblastic leukemia, ALL). Obtaining 6000 well-growing leukemia cells and inoculating them into wells of a 96-well cell culture plate. The culture medium is the 1640 cell culture medium containing 10% fetal bovine serum. After adding of the berbamine derivatives of different concentrations and mixing uniformly, the plate is placed in a carbon dioxide cell incubator (5% CO2) at 37° C. and incubated for 72 hours. Then the viable cell concentration is determined by the MTT method.

[15] = test system: Jurkat (acute lymphoblastic leukemia, ALL); assay: Leukemia cell growth inhibition, MTT, 72 h; type: cell-based, human
From the text: as §2

[16] = test system: K562/adr (drug-resistant chronic myeloid leukemia); assay: Leukemia cell growth inhibition, MTT, 72 h; type: cell-based, human
From the text: as §2

[17] = test system: MCF-7 (breast cancer); assay: Solid tumor cell growth inhibition, MTT, 72 h; type: cell-based, human
From the text: as §1

[18] = test system: MG63 (osteosarcomas); assay: Solid tumor cell growth inhibition, MTT, 72 h; type: cell-based, human
From the text: as §1

[19] = test system: NB4 (acute promyelocytic leukemia, AML); assay: Leukemia cell growth inhibition, MTT, 72 h; type: cell-based; conditions: Homo sapiens, read-out: half inhibiting concentration (IC50 value) NB4
From the text: as §2

[20] = test system: Kasumi-1 (acute myeloid leukemia M2 type); assay: Leukemia cell growth inhibition, MTT, 72 h; type: cell-based; conditions: Homo sapiens, read-out: half inhibiting concentration (IC50 value) Kasumi-1
From the text: as §2

[21] = test system: H9 (acute lymphoblastic leukemia, ALL); assay: Leukemia cell growth inhibition, MTT, 72 h; type: cell-based; conditions: Homo sapiens, read-out: half inhibiting concentration (IC50 value) H9
From the text: as §2

[22] = test system: human leukemia Jurkat cells; conditions: cited from earlier work
[23] = test system: normal human peripheral blood leucocytes; conditions: 0.5 ug/mL to 10 ug/mL; cited from earlier work
[24] = biological target: CaM (Homo sapiens, UniProt P0DP23); conditions: higher than that of berbamine; cited from earlier work
[25] = test system: red cell membrane CaM-independent Ca2++Mg2+ ATPase; conditions: stronger than that of berbamine; cited from earlier work

COc1cc2c3cc1Oc1c(OC)c(OC)cc4c1[C@@H](Cc1ccc(O)c(c1)Oc1ccc(cc1)C[C@@H]3N(C)CC2)N(C)CC4 [BBM, 6,6′,7-trimethoxy-2,2′-dimethylberbaman-12-ol]
IC50 ([1]; Homo sapiens, RPMI-8226, 72 hours, MTT, read-out: half inhibiting concentration (IC50 value) RPMI 8226): 1.17 µg/mL (≈ 1.92 µM) | IC50 [2]: 2.34 µg/mL (≈ 3.84 µM) | IC50 ([3]; Homo sapiens, A549, 72 hours, MTT, read-out: half inhibiting concentration (IC50 value) A549): 5.38 µg/mL (≈ 8.84 µM) | IC50 [4]: 7.63 µg/mL (≈ 12.5 µM) | IC50 [5]: 5.04 µg/mL (≈ 8.28 µM) | IC50 [6]: 12.7 µg/mL (≈ 20.9 µM) | IC50 ([7]; Homo sapiens, MGC-803, 72 hours, MTT, read-out: half inhibiting concentration (IC50 value) MGC803): 4.96 µg/mL (≈ 8.15 µM) | IC50 ([8]; Homo sapiens, HepG2, 72 hours, MTT, read-out: half inhibiting concentration (IC50 value) Hepg2): 6.67 µg/mL (≈ 11 µM) | IC50 ([9]; Homo sapiens, SW480, 72 hours, MTT, read-out: half inhibiting concentration (IC50 value) SW480): 5.74 µg/mL (≈ 9.43 µM) | IC50 [10]: 7.31 µg/mL (≈ 12 µM) | IC50 [11]: 5.84 µg/mL (≈ 9.59 µM) | IC50 [12]: 3.7 µg/mL (≈ 6.08 µM) | IC50 [13]: 1.1 µg/mL (≈ 1.81 µM) | IC50 ([14]; Homo sapiens, K562, 72 hours, MTT, read-out: half inhibiting concentration (IC50 value) K562): 3 µg/mL (≈ 4.93 µM) | IC50 ([15]; Homo sapiens, Jurkat, 72 hours, MTT, read-out: half inhibiting concentration (IC50 value) Jurkat): 1.9 µg/mL (≈ 3.12 µM) | IC50 ([16]; Homo sapiens, K562/Adr, 72 hours, MTT, read-out: half inhibiting concentration (IC50 value) K562adr): 3.53 µg/mL (≈ 5.8 µM) | IC50 ([17]; Homo sapiens, MCF7, 72 hours, MTT, read-out: half inhibiting concentration (IC50 value) MCF-7): 20.6 µg/mL (≈ 33.8 µM) | IC50 ([18]; Homo sapiens, MG-63, 72 hours, MTT, read-out: half inhibiting concentration (IC50 value) MG63): 9.18 µg/mL (≈ 15.1 µM) | IC50 [19]: 3 µg/mL (≈ 4.93 µM) | IC50 [20]: 1.3 µg/mL (≈ 2.14 µM) | IC50 [21]: 5.04 µg/mL (≈ 8.28 µM) | cell viability rate ([22]; drug concentration 0.5 ug/mL): 93.69% | cell viability rate ([22]; drug concentration 10 ug/mL): 14.85% | cytotoxicity on normal human peripheral blood leucocytes [23]: no obvious cytotoxicity

COc1cc2c3cc1Oc1c(OC)c(OC)cc4c1C(Cc1ccc(OCCCNc5ncc(C(=O)Nc6c(C)cccc6Cl)s5)c(c1)Oc1ccc(cc1)CC3N(C)CC2)N(C)CC4 (stereo not drawn) [Compound (2), 12-O-(3-(5-(2-chloro-6-methyl-phenyl-carbamoyl)-thiazol-2-amino)-propyl)-berbamine]
improvement of anti-MG63 (osteosarcoma) cell activity compared with berbamine ([18]; vs berbamine): more than 12 fold

COc1cccc(NC(=O)c2sc(NCCCOc3ccc4cc3Oc3ccc(cc3)CC3c5cc(c(OC)cc5CCN3C)Oc3c(OC)c(OC)cc5c3C(C4)N(C)CC5)nc2C)c1 (stereo not drawn) [Compound (3), 12-O-(3-(5-(3-methoxy-phenyl-carbamoyl)-4-methyl-thiazol-2-amino)-propyl)-Berbamine]
improvement of anti-K562 activity compared with berbamine ([14]; vs berbamine): 8 fold | improvement of anti-K562 activity compared with berbamine (second mention, K562/adr meant) ([16]; vs berbamine): 8 fold

COc1cccc(NC(=O)c2cnc(NCCCOc3ccc4cc3Oc3ccc(cc3)CC3c5cc(c(OC)cc5CCN3C)Oc3c(OC)c(OC)cc5c3C(C4)N(C)CC5)cn2)c1 (stereo not drawn) [Compound (4), 12-O-(3-(5-(3-methoxy-phenyl-carbamoyl)-pyrazin-2-amino)-propyl)-berbamine]
improvement of anti-RPMI8226 (multiple myeloma) cell line activity compared with berbamine ([1]; vs berbamine): more than 117 fold | improvement of anti-MGC 803 cell activity compared with berbamine ([7]; vs berbamine): more than 8 fold | improvement of anti-HepG2 cell activity compared with berbamine ([8]; vs berbamine): about 9 fold | improvement of anti-SW480 cell activity compared with berbamine ([9]; vs berbamine): more than 6 fold | improvement of anti-Jurkat acute lymphoblastic leukemia activity compared with berbamine ([15]; vs berbamine): more than 13 fold | improvement of anti-MCP-7 (breast cancer) cell activity compared with berbamine ([17]; vs berbamine): more than 26 fold

COc1cccc(NC(=O)c2ccc(NCCCOc3ccc4cc3Oc3ccc(cc3)CC3c5cc(c(OC)cc5CCN3C)Oc3c(OC)c(OC)cc5c3C(C4)N(C)CC5)nc2)c1 (stereo not drawn) [Compound (6), 12-O-(3-(5-(3-methoxy-phenyl-carbamoyl)-pyridin-2-amino)-propyl)-berbamine]
improvement of anti-A549 (human lung cancer) cell activity compared with berbamine ([3]; vs berbamine): more than 14 fold

CCOCCCCOc1ccc2cc1Oc1ccc(cc1)C[C@H]1c3cc(c(OC)cc3CCN1C)Oc1c(OC)c(OC)cc3c1[C@@H](C2)N(C)CC3 [EBB, [O-(4-ethoxy)-butyl]-berbamine]
specific coefficient as CaM antagonist relative to berbamine [24]: 6.5 times

O-Dansyl berbamine [DB]
inhibitory activity on red cell membrane CaM-independent Ca2++Mg2+ ATPase relative to berbamine [25]: 25 times
